Patent publication US12138625B2, “Screening kit and method” (CELLPLY S.R.L., priority 2016, dated 2024)

Key:
SU-DHL-4 cancer cells = assay: open well assay of Rituximab on SU-DHL-4 lymphoma cells (Calcein-AM / PI, time-lapse); type: cell-based; conditions: Rituximab 10 μg/mL, human serum 1%, PI 5 μM; versus CTRL; FIG. 11A
Experimental: Cells: SU-DHL-4 lymphoma cells and Raji cells were used (ATCC CCL-86). 3·10^5 cells/mL were cultured in RPMI medium supplemented with 10% FBS, 1% […]/streptomycin at 37° C., 95% RH, 5% CO2. The cells were amplified, dividing them when in confluence. PBMC were isolated from blood by centrifugation in gradient. Whole blood from healthy donors was collected into tubes treated with anticoagulants according to the directive “ethical principles and guidelines for the protection of humans in research”. Isolated PBMC were washed twice with 10 mL cold HBSS after lysis of red blood cells. The concentration of cells and their viability was determined with Trypan Blue on haemocytometer. The concentration was adjusted to 1 million cells/mL.
Different batches of SU-DHL-4 or Raji cells were harvested at the peak of their growth, washed with PBS and counted in a hemocytometer with Trypan Blue. The cell concentration was adjusted to 1 million cells/mL and they were labeled with Calcein AM (CAM) 5 nM for flow cytometry and 250 nM for the assay according to the present invention. […] Cell viability was finally assessed by PI and flow cytometry. […]
The images were acquired in brightfield (BF) to evaluate the morphological characteristics and then in fluorescence to evaluate the signal in DAPI bands (ex: 360/40 nm, em: 460/50 nm), FITC (ex: 480/30 nm, em: 535/40 nm), TRITC (ex: 540/25 nm, em: 605/55 nm). […]

Jurkat cells = assay: calcium signal (Fluo-4) of Jurkat cells after stimulation in open microwells; type: cell-based, human; conditions: Fluo-4 fluorescence, OKT3 10 μg/mL, average of a series of 3 experiments
Experimental: Cells from the Jurkat cell line (human Leukemic T cells) were obtained from ATCC and cultured in RPMI 1640 medium supplemented with 10% inactivated FBS medium, 10 mM Hepes, 2 mM Ultraglutamine and 1 mM sodium pyruvate, 1% Penicillin/Streptomycin in 25 cm^2 flasks at 37° C. and 5% CO2.
The OKT3 hybridomas were cultured in bioreactors (CellLine, Integra Biosciences) in complete RPMI 1640 medium containing 3% FBS and the supernatant was collected 2 times a week. The purification of monoclonal antibodies was performed using a double saturated ammonium sulfate precipitation at 30% and 50%, followed by dialysis in PBS. The purity of OKT3 was assessed by SDS-PAGE gel and the amount of antibody was determined through NanoDrop (Thermo Scientific). The antibody was then frozen at −80° C. before use.
For the assay in open microwells according to the present invention, Jurkat cells were labeled with Fluo-4 20 μM in HBSS, centrifuged and resuspended in serum-free medium (RPMI 1640 with 25 mM Hepes or HBSS) at a concentration of 1.6×10^6 cells/mL in 1.5 mL Eppendorf tubes used as input reservoirs for the open reversed microwell system. […] The images were acquired by a camera connected to the microscope at a distance of 1 minute and processed by software developed in LabView, quantifying the dynamic performance of the same signal on each sample cell.

Substance | dead cells (PI, TRITC channel) in time-lapse images (SU-DHL-4 cancer cells) | increase of the signal peak, compared to the baseline value (Jurkat cells) [%+/−90%]
RTX: monoclonal antibody Rituximab | present only at T2 and T3 in the RTX group | 
OKT3: monoclonal antibody purified from OKT3 hybridoma supernatant |  | 178
